Consider 1 compound from ChEMBL document CHEMBL2073769, “Direct evidence that saquinavir is transported by multidrug resistance-associated protein (MRP1) and canalicular multispecific organic anion transporter (MRP2)” (Antimicrob Agents Chemother, 2002).

For data set [1], the target named is Multidrug resistance-associated protein 1 (Homo sapiens, UniProt P33527). Nature of the data set: TP_TRANSPORTER: transepithelial transport (basal to apical) in MRP1-expressing MDCKII cells. It is filed as functional, cell-based. To be noted: dog, mdck-ii.
Data set [2] concerns the target ATP-binding cassette sub-family C member 2 (Homo sapiens, UniProt Q92887). As to the kind of experiment: TP_TRANSPORTER: transepithelial transport (basal to apical) in MRP2-expressing MDCKII cells. In kind it is functional, cell-based. To be noted: dog, mdck-ii.

Sequence of ATP-binding cassette sub-family C member 2 (Q92887 whole entry): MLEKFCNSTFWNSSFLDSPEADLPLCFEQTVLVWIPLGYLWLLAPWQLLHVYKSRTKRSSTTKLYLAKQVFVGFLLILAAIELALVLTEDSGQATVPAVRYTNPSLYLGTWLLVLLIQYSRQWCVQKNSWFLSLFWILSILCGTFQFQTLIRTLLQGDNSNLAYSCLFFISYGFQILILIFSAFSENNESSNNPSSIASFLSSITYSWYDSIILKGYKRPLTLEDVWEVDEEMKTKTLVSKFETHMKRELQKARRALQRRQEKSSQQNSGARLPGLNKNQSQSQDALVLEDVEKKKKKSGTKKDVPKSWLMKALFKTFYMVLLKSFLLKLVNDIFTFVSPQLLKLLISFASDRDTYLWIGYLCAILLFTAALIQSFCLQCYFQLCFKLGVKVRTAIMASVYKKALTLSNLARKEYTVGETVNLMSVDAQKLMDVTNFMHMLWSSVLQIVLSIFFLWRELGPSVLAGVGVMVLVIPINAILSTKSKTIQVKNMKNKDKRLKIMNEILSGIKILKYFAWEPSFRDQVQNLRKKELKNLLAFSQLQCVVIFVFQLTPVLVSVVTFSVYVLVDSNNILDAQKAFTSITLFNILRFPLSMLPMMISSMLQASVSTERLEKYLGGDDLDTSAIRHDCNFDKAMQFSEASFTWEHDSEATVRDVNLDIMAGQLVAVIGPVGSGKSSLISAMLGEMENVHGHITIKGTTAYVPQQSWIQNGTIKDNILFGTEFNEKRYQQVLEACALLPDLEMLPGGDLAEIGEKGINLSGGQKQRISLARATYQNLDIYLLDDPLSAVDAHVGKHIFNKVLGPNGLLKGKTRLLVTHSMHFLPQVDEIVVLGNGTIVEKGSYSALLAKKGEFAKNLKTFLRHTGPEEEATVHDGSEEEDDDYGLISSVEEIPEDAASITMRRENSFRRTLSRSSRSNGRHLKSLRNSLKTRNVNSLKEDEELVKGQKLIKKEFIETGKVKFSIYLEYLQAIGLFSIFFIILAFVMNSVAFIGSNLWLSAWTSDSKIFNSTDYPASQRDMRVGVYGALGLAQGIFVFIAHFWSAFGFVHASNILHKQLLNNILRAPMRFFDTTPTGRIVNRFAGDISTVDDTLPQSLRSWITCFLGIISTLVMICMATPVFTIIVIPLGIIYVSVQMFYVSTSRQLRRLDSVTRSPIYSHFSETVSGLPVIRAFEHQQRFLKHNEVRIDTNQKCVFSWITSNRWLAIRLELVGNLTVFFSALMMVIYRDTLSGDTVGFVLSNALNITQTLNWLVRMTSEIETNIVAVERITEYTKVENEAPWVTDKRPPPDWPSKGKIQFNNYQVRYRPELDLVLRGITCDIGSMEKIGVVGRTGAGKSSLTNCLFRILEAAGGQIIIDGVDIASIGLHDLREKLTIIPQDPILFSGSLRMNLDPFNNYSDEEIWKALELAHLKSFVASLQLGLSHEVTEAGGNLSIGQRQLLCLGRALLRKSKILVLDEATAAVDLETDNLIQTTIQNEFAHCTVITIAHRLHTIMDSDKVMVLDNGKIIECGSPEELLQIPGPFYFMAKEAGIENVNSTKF
Sequence of Multidrug resistance-associated protein 1 (P33527 whole entry): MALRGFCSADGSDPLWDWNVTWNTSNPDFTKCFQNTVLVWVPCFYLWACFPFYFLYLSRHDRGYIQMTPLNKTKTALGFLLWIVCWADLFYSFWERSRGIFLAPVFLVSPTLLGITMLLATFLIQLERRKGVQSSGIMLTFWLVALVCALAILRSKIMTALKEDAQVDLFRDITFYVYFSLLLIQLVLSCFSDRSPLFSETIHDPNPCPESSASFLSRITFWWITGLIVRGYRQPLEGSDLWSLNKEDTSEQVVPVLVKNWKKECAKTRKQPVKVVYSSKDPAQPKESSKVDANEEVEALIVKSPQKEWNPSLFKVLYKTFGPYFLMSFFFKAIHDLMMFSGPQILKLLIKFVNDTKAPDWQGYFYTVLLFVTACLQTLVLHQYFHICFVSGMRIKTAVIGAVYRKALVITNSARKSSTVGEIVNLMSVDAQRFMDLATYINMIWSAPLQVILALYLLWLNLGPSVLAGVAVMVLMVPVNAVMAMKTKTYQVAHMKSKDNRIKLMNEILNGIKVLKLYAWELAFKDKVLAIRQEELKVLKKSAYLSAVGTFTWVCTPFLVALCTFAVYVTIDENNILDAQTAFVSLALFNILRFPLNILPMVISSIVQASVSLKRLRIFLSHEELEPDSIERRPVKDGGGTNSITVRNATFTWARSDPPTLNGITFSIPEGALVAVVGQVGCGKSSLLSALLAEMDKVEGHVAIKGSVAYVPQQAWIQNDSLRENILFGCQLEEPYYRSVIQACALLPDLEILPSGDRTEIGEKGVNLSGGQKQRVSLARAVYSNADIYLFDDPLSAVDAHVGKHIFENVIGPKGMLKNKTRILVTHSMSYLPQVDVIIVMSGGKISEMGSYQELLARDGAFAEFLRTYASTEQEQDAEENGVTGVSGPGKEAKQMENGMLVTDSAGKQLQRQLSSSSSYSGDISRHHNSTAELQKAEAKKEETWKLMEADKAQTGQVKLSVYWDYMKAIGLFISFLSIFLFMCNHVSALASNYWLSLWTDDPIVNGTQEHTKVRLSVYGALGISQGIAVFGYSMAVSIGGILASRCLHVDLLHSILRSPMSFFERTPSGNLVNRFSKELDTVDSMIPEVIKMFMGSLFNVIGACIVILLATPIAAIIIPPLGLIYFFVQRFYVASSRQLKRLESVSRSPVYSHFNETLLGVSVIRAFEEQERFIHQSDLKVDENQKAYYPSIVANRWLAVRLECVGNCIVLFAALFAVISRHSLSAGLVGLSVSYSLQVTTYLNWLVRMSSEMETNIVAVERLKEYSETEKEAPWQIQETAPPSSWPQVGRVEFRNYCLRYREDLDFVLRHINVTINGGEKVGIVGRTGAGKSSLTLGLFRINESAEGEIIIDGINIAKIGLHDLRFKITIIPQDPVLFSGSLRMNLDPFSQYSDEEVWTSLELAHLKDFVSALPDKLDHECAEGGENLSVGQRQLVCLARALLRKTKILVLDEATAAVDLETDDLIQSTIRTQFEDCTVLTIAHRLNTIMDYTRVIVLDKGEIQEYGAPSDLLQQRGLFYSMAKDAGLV

On to `CC(C)(C)NC(=O)[C@@H]1C[C@@H]2CCCC[C@@H]2CN1C[C@@H](O)[C@H](Cc1ccccc1)NC(=O)[C@H](CC(N)=O)NC(=O)c1ccc2ccccc2n1` [SAQUINAVIR], for which the Activity result in data set [1] and in data set [2] was “substrate [+]” throughout.
